This note sets out measurements from US20210353633A1, “CYCLODEXTRIN-BASED FORMULATION OF A BCL-2 INHIBITOR” (LES LABORATOIRES SERVIER, priority 2018, published 2021).

Where a name gives a salt, the structure may show the parent alone. Read-outs that look alike come from different tables or passages of the source.

The nature of the series: Test of maximum solubility of Compound A, HCl in a HP-β-cyclodextrin as a function of the pH. The conditions noted are these: Cavitron W7HP5 solution, aqueous with cosolvent or surfactant or cyclodextrin, thermodynamic from solid, Cavitron W7HP5 20% by weight, read-out: Solubility after 24 h. The series is classed as physicochemical. The protocol: The solubility of Compound A, HCl was studied in the presence of a HP-β-cyclodextrin as a function of the pH by means of various buffers (acetate pH=4 and phosphate pH=7.4).
0.75 g of sodium acetate trihydrate (NaC2H3O2, 3H2O) is introduced into a 250 mL graduated flask. 3.5 mL of 2 N acetic acid solution (produced from glacial acetic acid) are added. The volume is then made up to 250 mL by means of 0.9% NaCl solution, and the whole is then stirred. The pH is then adjusted to 4 by means of 1 N HCl solution.
2.075 g of monobasic potassium phosphate (KH2PO4) and 0.238 g of dibasic sodium phosphate (Na2HPO4) are dissolved in 100 mL of water. The whole is stirred until solubilisation is complete. The volume is then made up to 250 mL by means of 0.9% NaCl solution. The pH is adjusted to the desired value (7.4) by means of 1N sodium hydroxide solution.
2 g of the cyclodextrin studied (Cavitron™ W7HP5) are weighed into a 10 mL graduated flask. The volume is then made up to 10 mL by means of a water/0.9% NaCl mixture (80/20) or an acetate or phosphate buffer solution, depending on the desired pH.
Approximately 10 mg of Compound A, HCl are weighed. 1 mL of the medium containing the carrier to be tested, that is to say Cavitron™ W7HP5 without pH adjustment, Cavitron™ W7HP5 adjusted to pH=4 or Cavitron™ W7HP5 adjusted to pH=7.4, is then added. The whole is then placed under magnetic stirring. Then, 5 mg of Compound A, HCl are added. The operation is repeated if the compound solubilises. The mixture is stirred for 24 hours. The suspension so obtained is passed through a 0.45 μm filter before being analysed by HPLC chromatography.

A word on the solubility: it is the concentration that dissolves in the medium under given conditions.

As to `Cc1c(N(C(=O)c2cc(-c3cc(Cl)ccc3C(=O)N3Cc4ccccc4C[C@H]3CN3CCOCC3)n(C)c2C)c2ccc(O)cc2)cc(C#N)n1C` [Compound A, HCl, 5-(5-chloro-2-{[(3S)-3-(morpholin-4-ylmethyl)-3,4-dihydroisoquinolin-2(1H)-yl]carbonyl}phenyl)-N-(5-cyano-1,2-dimethyl-1H-pyrrol-3-yl)-N-(4-hydroxyphenyl)-1,2-dimethyl-1H-pyrrole-3-carboxamide], the solubility at 24 h was 24.6 mg/mL (pH = 3.8, i.e. pH not adjusted); 13 mg/mL (pH = 4 (acetate buffer)); 1.69 mg/mL (pH = 7.4 (phosphate buffer)).
